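Briefly, cells in 96-well plates were exposed to five compound concentrations for 48 h, and endpoints were estimated by linear interpolation. The concentration for 50% growth inhibition is given as GI50.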 The source made the active and inactive calls. No stated cut-off is given here; in the data, active = GI50 up to about 1.1 µM and inactive = higher.
Legend:
Assay in all cases: NCI-60 cell line screen, 48 h
SF-268 = system: SF-268
SNB-19 = system: SNB-19
SF-539 = system: SF-539
OVCAR-3 = system: OVCAR-3
SR = system: SR
OVCAR-4 = system: OVCAR-4
MCF7 = system: MCF7
HCT-15 = system: HCT-15
SNB-75 = system: SNB-75
K562 = system: K562
SK-MEL-2 = system: SK-MEL-2
HOP-62 = system: HOP-62
NCI/ADR-RES = system: NCI/ADR-RES
HOP-92 = system: HOP-92
SW-620 = system: SW-620
IGROV-1 = system: IGROV-1
LOX IMVI = system: LOX IMVI
UO-31 = system: UO-31
SK-MEL-28 = system: SK-MEL-28
U-251 = system: U-251
NCI-H226 = system: NCI-H226
M14 = system: M14
MDA-MB-435 = system: MDA-MB-435
HCC 2998 = system: HCC 2998
ACHN = system: ACHN
CAKI-1 = system: CAKI-1
OVCAR-5 = system: OVCAR-5
NCI-H460 = system: NCI-H460
BT-549 = system: BT-549
KM12 = system: KM12
COLO 205 = system: COLO 205
UACC-257 = system: UACC-257
HCT-116 = system: HCT-116
MOLT-4 = system: MOLT-4
OVCAR-8 = system: OVCAR-8
786-0 = system: 786-0
CCRF-CEM = system: CCRF-CEM
TK-10 = system: TK-10
RPMI-8226 = system: RPMI-8226
PC-3 = system: PC-3
T47D = system: T47D
EKVX = system: EKVX
DU-145 = system: DU-145
HT-29 = system: HT-29
SK-MEL-5 = system: SK-MEL-5
A549 = system: A549
SN12C = system: SN12C
MDA-N = system: MDA-N
SK-OV-3 = system: SK-OV-3
UACC-62 = system: UACC-62
NCI-H23 = system: NCI-H23
MDA-MB-231 = system: MDA-MB-231
SF-295 = system: SF-295
RXF 393 = system: RXF 393
A498 = system: A498

## O=C1CC(O)c2c(Cl)sc(Cl)c21 (stereo not given)
SF-268
  GI50: 3.66 µM (inactive)
SNB-19
  GI50: 21.7 µM (inactive)
SF-539
  GI50: 9.04 µM (inactive)
OVCAR-3
  GI50: 5.4 µM (inactive)
SR
  GI50: 2.71 µM (inactive)
OVCAR-4
  GI50: 18.9 µM (inactive)
MCF7
  GI50: 5.45 µM (inactive)
HCT-15
  GI50: 3.39 µM
SNB-75
  GI50: 14.4 µM (inactive)
K562
  GI50: 3.37 µM (inactive)
SK-MEL-2
  GI50: 13.5 µM (inactive)
HOP-62
  GI50: 14.1 µM (inactive)
NCI/ADR-RES
  GI50: 22.9 µM (inactive)
HOP-92
  GI50: 3.11 µM (inactive)
SW-620
  GI50: 3.13 µM (inactive)
IGROV-1
  GI50: 8.13 µM (inactive)
LOX IMVI
  GI50: 2.08 µM (inactive)
UO-31
  GI50: 6.49 µM (inactive)
SK-MEL-28
  GI50: 6.46 µM (inactive)
U-251
  GI50: 13.9 µM (inactive)
NCI-H226
  GI50: 15.1 µM (inactive)
M14
  GI50: 14.2 µM (inactive)
MDA-MB-435
  GI50: 8.02 µM (inactive)
HCC 2998
  GI50: 27.2 µM (inactive)
ACHN
  GI50: 12.2 µM (inactive)
CAKI-1
  GI50: 3.3 µM (inactive)
OVCAR-5
  GI50: 17 µM (inactive)
NCI-H460
  GI50: 22.8 µM (inactive)
BT-549
  GI50: 16 µM (inactive)
KM12
  GI50: 3.9 µM (inactive)
COLO 205
  GI50: 5.12 µM (inactive)
UACC-257
  GI50: 9.98 µM (inactive)
HCT-116
  GI50: 3.83 µM (inactive)
MOLT-4
  GI50: 2.81 µM (inactive)
OVCAR-8
  GI50: 4.07 µM (inactive)
786-0
  GI50: 4.14 µM (inactive)
CCRF-CEM
  GI50: 1.7 µM (inactive)
TK-10
  GI50: 15.9 µM (inactive)
RPMI-8226
  GI50: 7.19 µM (inactive)
PC-3
  GI50: 13.3 µM (inactive)
T47D
  GI50: 5.89 µM (inactive)
EKVX
  GI50: 18.7 µM (inactive)
DU-145
  GI50: 12.9 µM (inactive)
HT-29
  GI50: 2.88 µM (inactive)
SK-MEL-5
  GI50: 17.1 µM (inactive)
A549
  GI50: 16.4 µM (inactive)
SN12C
  GI50: 11.3 µM (inactive)
MDA-N
  GI50: 9.33 µM (inactive)
SK-OV-3
  GI50: 22.5 µM (inactive)
UACC-62
  GI50: 14.7 µM (inactive)
NCI-H23
  GI50: 15.3 µM (inactive)
MDA-MB-231
  GI50: 27.7 µM (inactive)
SF-295
  GI50: 23.2 µM (inactive)
RXF 393
  GI50: 3.68 µM (inactive)
A498
  GI50: 22.1 µM (inactive)
